According to PMC13492380, “Dissecting Structural and Functional Determinants of Microtubules Stabilization through Guided Chemical Modulation” (Journal of Medicinal Chemistry, 2026):
Read-outs that look alike come from different tables or passages of the source.

Legend:
[1] = system: Kb-3.1 cells (HeLa subclone); assay: MTT cytotoxicity assay, Kb-3.1; type: cell-based; details: Homo sapiens, read-out: Cytotoxicity IC50 Kb-3.1
Protocol: Antiproliferative assays were performed as described.

[2] = system: HeLaβIII cells (overexpressing βIII tubulin isotype); assay: MTT cytotoxicity assay, HeLaβIII; details: for IC50: Homo sapiens, 48 h, read-out: Cytotoxicity IC50 HeLaβIII; for R/S (resistant to sensitive ratio): IC50 HeLaβIII / IC50 HeLa
Protocol: (§1) Antiproliferative assays were performed as described. […] Then, increasing concentrations of drugs were added and incubated for 48 h prior to the reaction with the MTT solution. IC50 values were obtained by fitting the experimental data (absorbance at 570/690 nm) to a four-parameter logistic curve using SigmaPlot 14.5 software package (Systat Software, Inc., San Jose, CA, USA) and IC50 values were expressed as mean ± SEM from three independent experiments, each performed in duplicate.

A549 cells = assay: Indirect immunofluorescence of the microtubular network; type: cell-based, human; details: 24 h
Excerpt: We first assessed their impact on the cellular microtubular network. […] These defects manifested as multinucleated cells resulting from multiple abnormal star-like spindles, leading to an aberrant arrangement of chromosomes. […] We then evaluated their ability to overcome intrinsic resistance mechanisms using cell lines overexpressing βIII-tubulin isotype (HeLaβIII) or P-glycoprotein, PgP, (Kb-V1), compared to parental HeLa and Kb-3.1 cells.
2 Cellular and biochemical characterization of compounds 1a and 1b. (A) Effects of compounds on A549 cells. […] Top row panels are control cells treated with 0.5% DMSO (vehicle), with the usual and evenly distributed microtubular network in interphase and normal bipolar spindle with chromosomes aligned at the metaphase plate during mitosis. […] All images are shown at the same magnification; scale bar 10 μm. […] (C) Van’t Hoff Plot of the equilibrium binding constants of compounds 1a and 1b at the assayed temperatures. Error bars represent the standard error of the measurement.
DMSO was always less than 0.5% v/v. PEG and Triton X-100 were applied to cells prior the fixation with 3.7% formaldehyde, as previously described. Cells were incubated with a DM1A mouse monoclonal antibody (Sigma-Aldrich) reacting with α-tubulin. […] Images were recorded using a Leica DFC360 FX CCD camera.

HeLa cells = assay: MTT cytotoxicity assay, HeLa; type: cell-based; details: Homo sapiens, 48 h, read-out: Cytotoxicity IC50 HeLa
Protocol: as §1

[3] = system: Kb-V1 cells (overexpressing PgP); assay: MTT cytotoxicity assay, Kb-V1; details: for IC50: Homo sapiens, KB-V1, 48 h, read-out: Cytotoxicity IC50 Kb-V1; for R/S (resistant to sensitive ratio): IC50 Kb-V1 / IC50 Kb-3.1
Protocol: as §1

[4] = system: Dynein Light Chain LC8 (retrograde transport) in SH-SY5Y cells; assay: Cy5-DBP dynein binding probe tracking, live-cell imaging; type: cell-based, human; details: for Cy5-DBP Distance, normalized to control / Cy5-DBP Speed, normalized to control: 1 μM PTX or 2.5 μM FTX2, 1a or 1b, mean ± SEM
Excerpt: Building on our ability to chemically modulate MT structure, we next explored how these changes influence signaling patterns involved in MAPs interactions. Given that MTs are key players in intracellular transport – guiding organelles, vesicles and chromosomes via molecular motors like dyneins and kinesins – we assessed the impact of our compounds on transport dynamics in neuroblastoma SH-SY5Y cells. We combined live-cell imaging with previously developed tracking peptides (Figure A): Cy5-DBP, which encompasses the sequence that specifically recognizes Dynein Light Chain LC8 (retrograde transport), and Cy5-KBP, with a sequence that binds to the tetratricopeptide repeat of the kinesin-1 light chain KLC1 (anterograde transport). […] However, this was for a short incubation period (1 to 2.5 h, including imaging time) to avoid mitotic arrest or compromise cell viability. We then assessed particle behavior by measuring mean track displacement and mean track velocity.
Cy5-KBP and Cy5-DBP tracking peptides were synthesized at CIB-Margarita Salas (CSIC), following a published protocol. Briefly, the peptide chains were assembled via solid phase peptide synthesis (SPPS) using fluorenylmethyloxycarbonyl (Fmoc) as N-terminal protecting group and, subsequently labeled with the organic dye cyanine 5 (Cy5) via a maleimide–thiol reaction between the N-terminal cysteine residues of the peptides and the commercially available Cy5-maleimide. The final peptides were purified via reverse phase HPLC, dissolved in DMSO to a final 2.5 mM concentration and stored in small aliquots at −20 °C. SH-SY5Y cells were seeded into μ-Slide 8-wells ibiTreat plates (ibidi, flat polymer coverslip-bottom, tissue culture treated) at a concentration of 35,000 cells/well and incubated for 48 h at 37 °C and 5% CO2. […] After this time, the culture medium was replaced by the drug working solution containing either Cy5-KBP or Cy5-DBP, and the plate was incubated for an additional 15 min at 37 °C and 5% CO2. Then, the culture medium was replaced with drug working solution without labeled peptide and the cells were imaged using a confocal laser scanning microscope Leica TCS SP8 with a 63x oil immersion objective that included a humidified incubation chamber, a CO2 controller and a heating unit. Cy5 dye was excited at 635 nm and the fluorescence emission was collected at 645–690 nm. Images were recorded every 1.793 s for 3 min as 2-layer-z-stacks. For each condition, two to three different fields were imaged in two separate experiments.
Single-peptide trajectories were tracked with the TrackMate plugin from the Fiji package software (https://imagej.net/TrackMate). Particles with an estimated blob diameter of 1–1.5 μm were detected using the Laplacian of Gaussian (LoG) detector and linked with the Linear motion LAP tracker. Only spots that were at a maximum distance of 2 μm were linked. Trajectories with less than 6 spots were discarded since they were probably artifactual, and track mean displacement and track mean velocity were calculated and normalized to control cells. Data were further analyzed with MATLAB to perform a Mean Square Displacement (MSD) analysis to determine the mode of displacement of the peptides followed over time. Briefly, for each trajectory the MSD function was calculated and its log–log representation fitted with a linear function (log(MSD(τ)) = […] x log(τ) + C). MSD curves with an R^2 coefficient <0.8 were removed. The slope (α) of each MSD curve determines the motion type of each particle and particles were classified into: constrained particles (CM) α < 1, Brownian particles (BM) α = 1, and transported particles (TM) α > 1. Two independent experiments were performed using three biological replicates (N = 6). Statistical analyses of normalized track mean displacement and track mean velocity were performed using an unpaired t test with Welch’s correction in GraphPad Prism 8 software. […]

[5] = system: taxane site of assembled cross-linked MTs; details: cited from earlier work
[6] = equilibrium constants from anisotropy measurements, ref footnote c 'As in ref .' (number not given)
[7] = ref footnote b 'As in ref .' (number not given)

SMILES | IC50 ([1]; KB 3-1, 48 h) | IC50 [2] | R/S (resistant to sensitive ratio) [2] | selected concentration showing equivalent effect on microtubular network and mitotic spindles (A549 cells) | IC50 (HeLa cells) | IC50 [3] | R/S (resistant to sensitive ratio) [3] | Cy5-DBP Distance, normalized to control [4] | Cy5-DBP Speed, normalized to control [4] | IC50 ([1]; KB 3-1, MTT, 48 h, mean ± SEM) | IC50 (HeLa cells; MTT, mean ± SEM) | K b 26 °C [5, 6] | K b 35 °C [5, 6] | K b 42 °C [5, 6] | K b 26 °C [5, 7] | K b 35 °C [5, 7] | K b 42 °C [5, 7] | ΔG 0 app at 26 °C [5, 7] | ΔS 0 app [5, 7] | reduction of Cy5-DBP particle displacement vs nontreated control cells ([4]; 1 μM PTX)
CC(=O)OC1C(=O)C2(C)C(OC(=O)CCCCC(=O)OC3CCc4ccccc43)CC3OCC3(OC(C)=O)C2C(OC(=O)c2ccccc2)C2(O)CC(OC(=O)C(O)C(NC(=O)c3ccccc3)c3ccccc3)C(C)=C1C2(C)C (centres unmarked) [1a, 7-O-(6″-O-(2‴,3‴-Dihydroinden-1‴-yl)hexanedioyl) Paclitaxel] | 280 ± 30 nM | 510 ± 80 nM | 3 | 2 µM | 180 ± 20 nM | > 40000 nM | >142 | 0.92 ± 0.01 | 0.98 ± 0.02 | – | – | – | – | – | – | – | – | – | – | –
COc1ccc2c(c1)CC(NC(=O)CCCCCCCC(=O)OC1CC3OCC3(OC(C)=O)C3C(OC(=O)c4ccccc4)C4(O)CC(OC(=O)C(O)C(NC(=O)c5ccccc5)c5ccccc5)C(C)=C(C(OC(C)=O)C(=O)C13C)C4(C)C)CC2 [1b, 7-O-((S)-9″-(7‴-Methoxy-1‴,2‴,3‴,4‴-tetrahydronaphthalen-2‴-yl)amino) −9″-oxononanoyl) Paclitaxel] | – | 720 ± 80 nM | 7 | 1 µM | – | 19000 nM | 127 | 0.92 ± 0.01 | 1.07 ± 0.01 | 150 ± 20 nM | 100 ± 20 nM | – | – | – | – | – | – | – | – | –
CC(=O)O[C@H]1C(=O)[C@]2(C)[C@@H](OC(=O)[C@H](C)NC(=O)c3ccc(-c4c5cc(F)c(=O)cc-5oc5cc(O)c(F)cc45)c(C(=O)O)c3)C[C@H]3OC[C@@]3(OC(C)=O)[C@H]2[C@H](OC(=O)c2ccccc2)[C@]2(O)C[C@H](OC(=O)[C@H](O)[C@@H](NC(=O)c3ccccc3)c3ccccc3)C(C)=C1C2(C)C [FTX2, Flutax2] | – | – | – | – | – | – | – | 1.06 ± 0.02 | 1.21 ± 0.02 | – | – | (5.9 ± 0.3) × 10^7 M-1 | (2.2 ± 0.2) × 10^7 M-1 | (1.8 ± 0.2) × 10^7 M-1 | – | – | – | – | – | –
CC(=O)O[C@H]1C(=O)[C@@]2(C)[C@H]([C@H](OC(=O)c3ccccc3)[C@]3(O)C[C@H](OC(=O)[C@H](O)[C@@H](NC(=O)c4ccccc4)c4ccccc4)C(C)=C1C3(C)C)[C@]1(OC(C)=O)CO[C@@H]1C[C@@H]2O [PTX, Paclitaxel] | – | 28.7 ± 0.7 nM | – | – | – | 2700 ± 600 nM | – | – | – | 2.4 ± 0.2 nM | – | – | – | – | (2.64 ± 0.17) × 10^7 M-1 | (1.43 ± 0.17) × 10^7 M-1 | (0.94 ± 0.23) × 10^7 M-1 | –41.7 ± 0.2 kJ mol^–1 | –29.3 ± 13.1 J mol ^aK^–1 | approximately 20%
